Measurements: patent US9000125B2, “Approach to treat intraocular hypertension” (priority 2006, dated 2015)
No end group written: not given here.

System: intraocular pressure (IOP) of the rabbit eye
Test: IOP (TonoPen) in anaesthetized normal NZW rabbits after deposition/injection beneath the Tenon's capsule
Settings: Example 9; 50 or 100 μg below the Tenon's capsule

In the case of CHSKTR [CHSKTR], the “local or systemic side effects” value was “without inducing any local or systemic side effects”.
